Results reported in article PMC6917776, “Discovery of a chemical probe for PRDM9” (Nature Communications, 2019).
Read-outs that look alike come from different tables or passages of the source.

Legend:
DNMT3A/3L = molecular target: T1, DNMT3A/3L (Homo sapiens, UniProt Q9Y6K1); assay: Methyltransferase selectivity assay (filter-based); format: biochemical
T1 construct: purchased Structural Genomics Consortium (SGC Toronto) in-house methyltransferase panel
Description: (§1) Selectivity against methyltransferases were determined as described previously. Details of the assays are described in the supplementary methods.
(§2) Methyltransferase selectivity assay1
The effect of chemical probes and negative controls on the methyltransferase activities of protein, DNA and RNA methyltransferases was tested by radiometric assays using 3H-SAM. […]
Briefly, a 10 µL reaction containing 3H- […]
The CPM in the absence of compound or enzyme was defined as 100% activity and background (0%), respectively, for each dataset. […]
(§3) For proteins which were tested with nucleosome as substrate such as DOT1L, NSD1, NSD2, NSD3, and ASH1L, or unbiotinylated Poly(2′-deoxyinosinic-2′-deoxycytidylic acid) (Cat# 81349-500UG, Sigma Aldrich) such as DNMT3A/3L, and DNMT3B/3L, a filter-based assay was used. In this assay, a trichloroacetic acid (TCA) protein precipitation protocol was employed. A 10 µL reaction mixture was incubated at 23°C for 1 h, followed by addition of 50 µL of 10% TCA. The mixture was transferred to filter plates (Millipore, Billerica, MA, USA) that were centrifuged at 2000 rpm (Allegra X-15R; Beckman Coulter, Brea, CA, USA) for 2 min. Samples were washed twice with 10% TCA and once with ethanol (180 µL), and centrifuged. After drying, 100 µL MicroScint-O (Perkin Elmer) was added to each well and the plates were centrifuged to remove the liquid. A 70 µL volume of MicroScint-O was added and the CPM was measured with a TopCount plate reader.

G9a = molecular target: T2, G9a (Homo sapiens, UniProt Q96KQ7); assay: Methyltransferase selectivity assay (SPA); format: biochemical
T2 construct: purchased Structural Genomics Consortium (SGC Toronto) in-house methyltransferase panel
T2 sequence (Q96KQ7 1-1210): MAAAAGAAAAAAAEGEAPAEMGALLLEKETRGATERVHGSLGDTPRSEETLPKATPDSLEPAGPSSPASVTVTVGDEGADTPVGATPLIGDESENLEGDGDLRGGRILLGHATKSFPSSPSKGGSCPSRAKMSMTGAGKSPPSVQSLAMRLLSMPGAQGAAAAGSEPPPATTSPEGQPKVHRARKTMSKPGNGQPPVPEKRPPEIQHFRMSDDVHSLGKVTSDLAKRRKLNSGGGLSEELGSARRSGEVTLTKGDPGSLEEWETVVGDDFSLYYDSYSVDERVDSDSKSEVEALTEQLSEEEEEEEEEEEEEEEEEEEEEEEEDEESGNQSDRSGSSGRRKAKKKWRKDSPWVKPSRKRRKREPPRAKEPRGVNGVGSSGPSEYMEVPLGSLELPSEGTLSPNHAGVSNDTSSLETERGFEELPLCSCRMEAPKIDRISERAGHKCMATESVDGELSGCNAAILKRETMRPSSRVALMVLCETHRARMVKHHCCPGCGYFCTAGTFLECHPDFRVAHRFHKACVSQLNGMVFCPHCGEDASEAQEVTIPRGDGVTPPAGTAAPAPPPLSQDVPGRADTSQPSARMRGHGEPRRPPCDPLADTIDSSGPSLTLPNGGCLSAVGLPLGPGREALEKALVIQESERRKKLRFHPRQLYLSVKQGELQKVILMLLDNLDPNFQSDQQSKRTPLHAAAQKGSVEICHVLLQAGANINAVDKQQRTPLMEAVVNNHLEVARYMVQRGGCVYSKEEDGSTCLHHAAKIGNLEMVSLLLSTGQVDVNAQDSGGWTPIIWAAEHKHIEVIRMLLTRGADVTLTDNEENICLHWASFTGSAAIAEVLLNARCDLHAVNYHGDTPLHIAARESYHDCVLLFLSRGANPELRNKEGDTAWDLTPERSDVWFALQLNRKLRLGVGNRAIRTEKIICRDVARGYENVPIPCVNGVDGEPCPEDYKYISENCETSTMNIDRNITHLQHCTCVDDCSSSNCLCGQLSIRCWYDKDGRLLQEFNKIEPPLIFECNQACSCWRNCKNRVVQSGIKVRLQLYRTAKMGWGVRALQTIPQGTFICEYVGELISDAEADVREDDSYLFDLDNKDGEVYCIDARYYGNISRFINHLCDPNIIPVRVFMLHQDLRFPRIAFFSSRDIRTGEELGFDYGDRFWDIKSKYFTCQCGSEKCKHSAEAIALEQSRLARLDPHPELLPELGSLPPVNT
Description: as §1, §2
The effect of chemical probes and negative controls on the methyltransferase activities of protein, DNA and RNA methyltransferases was tested by radiometric assays using 3H-SAM. For proteins such as MLL1 trimeric, MLL3 pentameric, EZH1 (PRC2) pentameric, and EZH2 (PRC2) trimeric complexes, as well as G9a, GLP, SUV39H1, SUV39H2, SUV420H1, SUV420H2, SETD2, SETD8, SETDB1, SETD7, PRMT1, PRMT3, PRMT4, PRMT5/ MEP50 complex, PRMT6, PRMT7, PRMT8, PRMT9, PRDM9, SMYD2, SMYD3, DNMT1, and BCDIN3D the incorporation of a tritium-labeled methyl group into biotinylated substrate was monitored using scintillation proximity assay (SPA). Briefly, a 10 µL reaction containing 3H-SAM and substrate at concentrations close to the apparent Km values for each enzyme (balanced conditions) was prepared. The reactions were quenched with 10 µL of 7.5 M guanidine hydrochloride; 180 µL of 20 mM Tris buffer (pH 8.0) were added, and the mixture was transferred to a 96-well FlashPlate and incubated for 1 h. The counts per minute (CPM) was measured on a TopCount plate reader. The CPM in the absence of compound or enzyme was defined as 100% activity and background (0%), respectively, for each dataset. For DNMT1, the double-stranded DNA substrate was prepared by annealing two complementary strands (biotinylated forward strand: B-[…] and reverse strand:
) that were synthesized by Eurofins MWG Operon
as §3

[1] = 10µM compound, Exp1, Exp2, 10 µM
[2] = 1µM compound, Exp1, Exp2, read-out: Activity %
[3] = 10µM compound, Exp1, Exp2, read-out: Activity %

T1 sequence (Q9Y6K1 whole entry, looked up): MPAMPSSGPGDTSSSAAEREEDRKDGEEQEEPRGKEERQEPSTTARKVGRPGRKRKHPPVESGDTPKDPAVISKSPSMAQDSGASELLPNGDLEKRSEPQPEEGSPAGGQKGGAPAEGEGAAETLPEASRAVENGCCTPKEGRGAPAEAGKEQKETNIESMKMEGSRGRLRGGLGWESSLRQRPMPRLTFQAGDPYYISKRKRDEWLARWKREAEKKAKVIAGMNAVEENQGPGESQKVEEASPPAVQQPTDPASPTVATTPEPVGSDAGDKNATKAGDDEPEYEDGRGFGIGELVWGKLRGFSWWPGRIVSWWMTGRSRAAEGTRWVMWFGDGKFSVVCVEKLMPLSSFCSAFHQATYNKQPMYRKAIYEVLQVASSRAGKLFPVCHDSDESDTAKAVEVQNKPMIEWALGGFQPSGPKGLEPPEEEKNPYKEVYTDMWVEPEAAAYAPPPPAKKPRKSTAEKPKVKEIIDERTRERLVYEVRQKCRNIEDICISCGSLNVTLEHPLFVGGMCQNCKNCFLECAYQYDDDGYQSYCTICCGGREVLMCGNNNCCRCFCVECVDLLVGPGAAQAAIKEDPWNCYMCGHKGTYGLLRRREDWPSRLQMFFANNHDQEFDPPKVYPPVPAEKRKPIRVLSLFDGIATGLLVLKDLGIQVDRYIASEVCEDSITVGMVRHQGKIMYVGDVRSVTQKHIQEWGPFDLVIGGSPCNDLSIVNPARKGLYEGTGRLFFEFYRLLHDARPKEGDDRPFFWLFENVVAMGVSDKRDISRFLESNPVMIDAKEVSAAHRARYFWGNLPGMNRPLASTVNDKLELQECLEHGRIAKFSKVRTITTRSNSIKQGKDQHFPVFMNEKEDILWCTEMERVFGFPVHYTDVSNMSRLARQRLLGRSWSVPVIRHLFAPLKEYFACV
T1 sequence (Q9UJW3 whole entry partner): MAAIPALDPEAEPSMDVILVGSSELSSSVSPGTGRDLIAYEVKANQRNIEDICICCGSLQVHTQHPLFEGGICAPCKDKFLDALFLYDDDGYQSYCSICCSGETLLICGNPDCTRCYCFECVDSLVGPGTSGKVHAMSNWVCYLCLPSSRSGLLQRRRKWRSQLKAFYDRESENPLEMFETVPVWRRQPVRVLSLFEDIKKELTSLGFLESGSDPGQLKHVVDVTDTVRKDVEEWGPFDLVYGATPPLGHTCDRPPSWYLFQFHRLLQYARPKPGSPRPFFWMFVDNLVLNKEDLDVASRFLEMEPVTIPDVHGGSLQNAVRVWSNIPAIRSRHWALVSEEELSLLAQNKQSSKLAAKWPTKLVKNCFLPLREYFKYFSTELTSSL

| SMILES | activity at 1 µM (DNMT3A/3L; 1µM compound, Exp1, Exp2) [%] | Activity % (DNMT3A/3L; 1µM compound, Exp1, Exp2, 1 µM) [%] | activity at 10 µM (DNMT3A/3L; 10µM compound, Exp1, Exp2) [%] | Activity % (DNMT3A/3L; [1]) [%] | activity at 1 µM (G9a; 1µM compound, Exp1, Exp2) [%] | Activity % (G9a; 1µM compound, Exp1, Exp2, 1 µM) [%] | activity at 10 µM (G9a; 10µM compound, Exp1, Exp2) [%] | Activity % (G9a; [1]) [%] | activity at 1 µM (DNMT3A/3L; [2]) [%] | activity at 10 µM (DNMT3A/3L; [3]) [%] | activity at 1 µM (G9a; [2]) [%] | activity at 10 µM (G9a; [3]) [%] |
| --- | --- | --- | --- | --- | --- | --- | --- | --- | --- | --- | --- | --- |
| COc1cc(OC)cc(-c2noc(N3CCN(C)C4(CCN(c5ccccc5)CC4)C3)n2)c1 [MRK-740 -NC] | 100 | 91 | 96 | 87 | 101 | 100 | 95 | 93 |  |  |  |  |
| COc1cc(OC)cc(-c2noc(N3CCN(C)C4(CCN(c5ccnc(C)c5)CC4)C3)n2)c1 [MRK-740] |  | 107 |  |  |  | 89 |  |  | 108 | 100 | 93 | 94 |
